From PMC3142157, “Sensitive and Specific Fluorescent Probes for Functional Analysis of the Three Major Types of Mammalian ABC Transporters” (PLoS ONE, 2011)

How the values were obtained:
[1] = test system: HCT-15 cells; assay: Dye uptake flow cytometry MDR assay (MAF), HCT-15 cells; format: cell-based, human
Description: (§1) Detailed protocol for the MDR assay is available in the Instruction Manual for eFluxx-ID® Green or Gold Multi-Drug Resistance Assay Kit (ENZO Life Sciences, Inc., Farmingdale, NY). […] In order to exclude dead cells in the analyses, propidium iodide (PI) or 7-actinaminomycin D (7-AAD) solution was added to the cells during the last 5 min of incubation in some experiments. Experiments were performed using a FACS Calibur benchtop flow cytometer (BD Biosciences, San Jose, CA) equipped with a blue (488 nm) laser, and the signals were registered in the FITC (530/30 filter), PE (585/42 filter) and PerCP (670 LP filter) channels. eFluxx-ID® Green dye fluorescence was measured in the FL1/FITC channel, and eFluxx-ID® Gold dye fluorescence, in the FL2/PE channel. Data analysis was performed using FlowJo 8.8.2 software (Tree Star, Inc., Ashland, OR). All of the experiments were performed at least three times. Results were expressed as mean ± S.E. Statistical comparisons were made using an unpaired two-tailed Student's t-test. […] Additionally, HCT-8 cell line reported to overexpress both MDR1 and MRP transporters, [21] was tested. HCT-8, HCT-15, HepG2, HL-60 and HL-60/MX1 cells were grown on tissue culture dishes and on the day of assay were incubated with eFluxx-ID® Green and Gold probes with and without inhibitors according to the described dye uptake protocol (Materials and Methods) and analyzed by flow cytometry.

[2] = test system: HeLa cells; assay: Dye uptake flow cytometry MDR assay (MAF), HeLa cells; format: cell-based, human; conditions: dye uptake protocol
Description: (§2) Detailed protocol for the MDR assay is available in the Instruction Manual for eFluxx-ID® Green or Gold Multi-Drug Resistance Assay Kit (ENZO Life Sciences, Inc., Farmingdale, NY). Briefly, on the day of the assay, cells were collected, washed with PBS and incubated with or without MDR inhibitors in the presence of the eFluxx-ID® Green or Gold probes for 30 min at 37°C and analyzed immediately by flow cytometry. eFluxx-ID® Green or Gold probes are novel xanthene-based small molecule dyes developed for the detection of MDR activity in living cells. In order to exclude dead cells in the analyses, propidium iodide (PI) or 7-actinaminomycin D (7-AAD) solution was added to the cells during the last 5 min of incubation in some experiments.
(§3) To develop a minimal step assay procedure for the dye uptake protocol, three modifications of the protocol were investigated. One set of the cells was treated according to a general “no-wash” protocol (see Instruction Manual for the kit). In the second set of tubes, the reaction was stopped by rapid centrifugation (1 min) at relatively low speed (200×g). After washing with ice-cold PBS and discarding the supernatant, cells were re-suspended in 0.5 ml of ice-cold medium and kept on ice until flow cytometry analysis was performed. The third set of cells was simply spun down (1 min, 200×g) to remove the excess probe, resuspended in ice-cold medium and kept on ice until flow cytometry analysis was performed. eFluxx-ID® Green dye (ex/em 490/514 nm) fluorescence intensity was measured in the FL1/FITC (530/30 filter) channel, and eFluxx-ID® Gold dye (ex/em 530/555 nm) fluorescence intensity was monitored in the FL2/PE (585/42 filter) channel.
(§4) Experiments were performed using a FACS Calibur benchtop flow cytometer (BD Biosciences, San Jose, CA) equipped with a blue (488 nm) laser, and the signals were registered in the FITC (530/30 filter), PE (585/42 filter) and PerCP (670 LP filter) channels. eFluxx-ID® Green dye fluorescence was measured in the FL1/FITC channel, and eFluxx-ID® Gold dye fluorescence, in the FL2/PE channel. Data analysis was performed using FlowJo 8.8.2 software (Tree Star, Inc., Ashland, OR).
(§5) All of the experiments were performed at least three times. Results were expressed as mean ± S.E. Statistical comparisons were made using an unpaired two-tailed Student's t-test. A P value of <0.05 was considered significant. Flow cytometry data were analyzed by comparison of median fluorescence, by using Kolmogorov-Smirnov statistics (D-value) or by calculating MDR Activity Factor (MAF) values using the following formula: MAF = 100*((MFIinh−MFI0)/MFIinh), wherein MFIinh and MFI0 are the mean fluorescence intensity values measured in the presence and absence of inhibitor [7].

[3] = test system: HL-60/MX1 cells; assay: Dye uptake flow cytometry MDR assay (MAF), HL-60/MX1 cells; format: cell-based, human
Description: as §1

[4] = test system: A549 cells; assay: Dye uptake flow cytometry MDR assay (MAF / D-values), A549 cells; format: cell-based, human; conditions: dye uptake protocol
Description: as §2, §3, §4, §5

[5] = test system: HepG2 cells; assay: Dye uptake flow cytometry MDR assay (MAF), HepG2 cells; format: cell-based, human
Description: as §1

[6] = test system: HL-60 cells; assay: Dye uptake flow cytometry MDR assay (MAF), HL-60 cells; format: cell-based, human
Description: as §1

[7] = test system: CHO K1 cells; assay: Dye uptake flow cytometry MDR assay (MAF / D-values), CHO K1 cells; format: cell-based, hamster; conditions: CHO K1 cells, dye uptake protocol
Description: as §2, §3, §4, §5

[8] = test system: HCT-8 cells; assay: Dye uptake flow cytometry MDR assay (MAF), HCT-8 cells; format: cell-based, human
Description: as §1

[9] = probe with vs without CsA, mean ± SEM
[10] = probe with vs without MK571, mean ± SEM
[11] = probe with vs without Nov, mean ± SEM
[12] = probe with vs without Ver, mean ± SEM
[13] = probe with vs without fumitremorgin C
[14] = probe with vs without probenecid
[15] = probe with vs without verapamil

Question: How did the “MAF value, CsA” value [1, 9] turn out when Calcein AM was run?
Answer: 67.2±2.0

Question: And the “MAF value, MK571” value [1, 10]?
Answer: 13.5±2.9

Question: And the “MAF value, Nov” value [1, 11]?
Answer: 4.3±2.2

Question: And the “MAF value, Ver” value [1, 12]?
Answer: 62.9±2.6

Question: And the “MAF value, Fumitremorgin C” value [2, 13]?
Answer: 0.2

Question: And the “MAF value, Probenecid” value [2, 14]?
Answer: 12.2

Question: What about the “MAF value, Verapamil” value [2, 15] of the same substance?
Answer: 13.0

Question: What about the “MAF value, CsA” value [3, 9] of the same substance?
Answer: 18.2±2.7

Question: And the “MAF value, MK571” value [3, 10]?
Answer: 10.8±1.8

Question: And the “MAF value, Nov” value [3, 11]?
Answer: 5.9±1.2

Question: And the “MAF value, Ver” value [3, 12]?
Answer: 1.6±0.3

Question: And the “MAF value, Fumitremorgin C” value [4, 13]?
Answer: 1.3

Question: What about the “MAF value, Probenecid” value [4, 14] of the same substance?
Answer: 19.5

Question: And the “MAF value, Verapamil” value [4, 15]?
Answer: 28.0

Question: What about the “MAF value, CsA” value [5, 9] of the same substance?
Answer: 59.0±2.4

Question: And the “MAF value, MK571” value [5, 10]?
Answer: 40.7±4.5

Question: And the “MAF value, Nov” value [5, 11]?
Answer: 3.0±0.1

Question: What about the “MAF value, Ver” value [5, 12] of the same substance?
Answer: 22.0±2.9

Question: And the “MAF value, CsA” value [6, 9]?
Answer: 15.2±2.5

Question: What about the “MAF value, MK571” value [6, 10] of the same substance?
Answer: 8.0±1.7

Question: What about the “MAF value, Nov” value [6, 11] of the same substance?
Answer: 8.6±1.5

Question: And the “MAF value, Ver” value [6, 12]?
Answer: 2.5±1.1

Question: What about the “MAF value, Fumitremorgin C” value [7, 13] of the same substance?
Answer: 6.4

Question: What about the “MAF value, Probenecid” value [7, 14] of the same substance?
Answer: 55.3

Question: And the “MAF value, Verapamil” value [7, 15]?
Answer: 63.9

Question: And the “MAF value, CsA” value [8, 9]?
Answer: 46.5±5.1

Question: What about the “MAF value, MK571” value [8, 10] of the same substance?
Answer: 31.1±4.7

Question: What about the “MAF value, Nov” value [8, 11] of the same substance?
Answer: 7.1±0.4

Question: And the “MAF value, Ver” value [8, 12]?
Answer: 25.9±0.9
